The source of these data is patent US7932273B2, “3-[(2-{[4-(hexyloxycarbonylaminoiminomethyl) phenylamino]methyl}-1-methyl-1H-benzimidazol-5-carbonyl)pyridin-2-ylamino]propionic acid ethylester methansulfonate and its use as a medicament” (Boehringer Ingelheim International GmbH, priority 2003, dated 2011).

Holding throughout (format): physicochemical
The nature of series [1]: hygroscopicity of the crystalline modifications. The conditions noted are these: in all three crystalline modifications (form I, form II, hemihydrate).
Series [2] is described as follows: solubility in physiologically acceptable acid aqueous media. Particulars: all three crystalline modifications.
The nature of series [3]: amorphization during grinding and compression. Particulars: all three crystalline modifications.

For `CCCCCCOC(=O)NC(=N)c1ccc(NCc2nc3cc(C(=O)N(CCC(=O)OCC)c4ccccn4)ccc3n2C)cc1` [methanesulfonate, ethyl 3-[(2-{[4-(hexyloxycarbonylaminoimino-methyl)phenylamino]methyl}-1-methyl-1H-benzimidazole-5-carbonyl)pyridin-2-ylamino]propionate methanesulfonate], the hygroscopicity result in series [1] is reported as “non-hygroscopic”. The solubility result in series [2] is on record as “dissolves very easily”. The amorphization entry in series [3] is recorded as “low amorphization”.
